The results in this text go back to ChEMBL document CHEMBL1156145, “1-(2-Aminoethyl)-3-(arylsulfonyl)-1H-pyrrolopyridines are 5-HT(6) receptor ligands” (Bioorg Med Chem Lett, 2009).

In general, Ki refers to the dissociation constant of the complex between target and ligand, obtained from inhibition or displacement. A low value points to tighter binding. One may read the Emax as the size of the effect at its maximum, as opposed to the concentration needed. As a reminder, the EC50 is the concentration giving half of the maximal effect. For orientation: IC50 means the midpoint of a concentration-inhibition curve.

The target in assay [1] is T1, 5-hydroxytryptamine receptor 6 (Homo sapiens, UniProt P50406). The experiment in a line: Displacement of [3H]LSD from human HT6 receptor expressed in human HeLa cells. It counts as cell-based. (Loss of bound radioactivity is the signal in a displacement assay; it reports binding, not function.)
T1 sequence (P50406 whole entry): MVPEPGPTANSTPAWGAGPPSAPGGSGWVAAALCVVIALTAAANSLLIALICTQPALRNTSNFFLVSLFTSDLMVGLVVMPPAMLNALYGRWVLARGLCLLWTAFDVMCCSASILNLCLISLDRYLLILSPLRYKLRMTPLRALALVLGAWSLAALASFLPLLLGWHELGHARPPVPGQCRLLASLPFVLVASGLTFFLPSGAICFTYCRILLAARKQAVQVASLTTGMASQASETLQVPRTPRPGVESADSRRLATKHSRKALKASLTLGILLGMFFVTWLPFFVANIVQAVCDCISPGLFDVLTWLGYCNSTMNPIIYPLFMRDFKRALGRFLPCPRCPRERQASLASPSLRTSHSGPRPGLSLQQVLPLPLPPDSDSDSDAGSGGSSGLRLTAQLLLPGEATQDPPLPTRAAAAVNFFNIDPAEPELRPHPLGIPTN
The target in assay [2] is T1, 5-hydroxytryptamine receptor 6. The experiment in a line: Agonist activity at human HT6 receptor expressed in human HeLa cells assessed as intracellular cAMP level by radioimmunoassay relative to serotonin. It counts as functional, cell-based. In general terms: Changes in cAMP serve as a functional read-out for many G protein-coupled receptors.
Assay [3] shares this target. Put plainly: Agonistic activity at human HT6 receptor expressed in HeLa cells assessed as intracellular cAMP level by radioimmunoassay.
Assay [4] has the same target. The experiment in a line: Antagonistic activity at human HT6 receptor expressed in HeLa cells assessed as intracellular cAMP level by radioimmunoassay relative to serotonin. It counts as functional, cell-based.
For assay [5] the target is unchanged. The experiment in a line: Antagonistic activity at human HT6 receptor expressed in HeLa cells assessed as intracellular cAMP level by radioimmunoassay. It counts as functional, cell-based.
Assay [6] shares this target. The experiment in a line: Displacement of [3H]LSD from human HT6 receptor expressed in HeLa cells at 1 uM relative to serotonin. The class given is cell-based.

Take `NCCn1cc(S(=O)(=O)c2c(Cl)nc3sccn23)c2ncccc21`: in assay [1], the inhibitory constant (Ki) amounted to 42 nM.

In assay [1], `NCCn1cc(S(=O)(=O)c2cccc(F)c2)c2ncccc21` registered a Ki of 76 nM. Further, in assay [2], the Emax was found to be 51%. Moreover, in assay [3], the EC50 is 823 nM.

In the case of `CC(=O)c1ccc2c(n1)c(S(=O)(=O)c1ccc(Br)cc1)cn2CCN(C)C`, the inhibition constant (Ki) in assay [1] was 3.9 nM. Also, in assay [4], the Imax stood at 100%. For the same molecule, in assay [5], the concentration for half-maximal inhibition (IC50) was determined as 385 nM.

As for `COc1ccc2c(n1)c(S(=O)(=O)c1cccc3ccccc13)cn2CCN(C)C`, the inhibition constant Ki in assay [1] was 1.7 nM. Moreover, the Emax in assay [4] stood at 100%. In addition, the IC50 in assay [5] amounted to 295 nM.

In turn, `CC(=O)c1ccc2c(n1)c(S(=O)(=O)c1ccccc1)cn2CCN(C)C` displayed an inhibitory constant (Ki) in assay [1] of 56 nM.

`NCCn1cc(S(=O)(=O)c2cccc(Cl)c2)c2ncccc21` registered a Ki in assay [1] of 35 nM. Further, the Emax in assay [2] stood at 56%. Also, the half-maximal effective concentration (EC50) in assay [3] came to 197 nM.

As to `CN(C)CCn1cc(S(=O)(=O)c2ccccc2)c2cccnc21`, in assay [2], the Emax was determined as 94%.

In turn, `COc1ccc2c(n1)c(S(=O)(=O)c1cccc(F)c1)cn2CCN(C)C` yielded a Ki in assay [1] of 11.3 nM. Also, in assay [4], the Emax is 91%. Further, the IC50 in assay [5] was determined as 41 nM.

As for `CN(C)CCn1cc(S(=O)(=O)c2ccccc2)c2cc(Cl)ncc21`, in assay [6], the Activity turned out to be 55%.

For `CN(C)CCn1cc(S(=O)(=O)c2cccc(F)c2)c2cccnc21`, the maximal response (Emax) in assay [2] turned out to be 100%.

On to `CN(C)CCn1cc(S(=O)(=O)c2ccccc2)c2cnccc21`, for which the Activity in assay [6] came out at 39%.

In the case of `Cc1cccc(S(=O)(=O)c2cn(CCN)c3cccnc23)c1`, the Ki in assay [1] was determined as 46 nM.

As for `CN(C)CCn1cc(S(=O)(=O)c2ccccc2)c2ncccc21`, the Ki in assay [1] stood at 368 nM.
